Laboratory results reported in PubChem BioAssay (NCI).
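In this assay, cells in 96-well plates receive the compound at five concentrations for 48 hours. Endpoints are linearly interpolated between the surrounding concentrations. Abbreviation: GI50, concentration required for 50% inhibition of growth. TGI: concentration producing complete growth inhibition.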

What was measured:
Test in all cases: NCI anticancer screen, dose series, 48 h; in the data active = GI50 below about 0.43 µM; inactive = the rest
[1] = system: HT29 colon
[2] = system: SK-OV-3 ovarian
[3] = system: LOX IMVI melanoma
[4] = system: M14 melanoma
[5] = system: SN12C renal
[6] = system: OVCAR-5 ovarian
[7] = system: UACC-62 melanoma
[8] = system: MCF7 breast
[9] = system: ACHN renal
[10] = system: EKVX NSCLC
[11] = system: SK-MEL-5 melanoma
[12] = system: TK-10 renal
[13] = system: HOP-92 NSCLC
[14] = system: UACC-257 melanoma
[15] = system: UO-31 renal
[16] = system: OVCAR-8 ovarian
[17] = system: MDA-MB-231 breast
[18] = system: DU-145 prostate
[19] = system: HOP-62 NSCLC
[20] = system: CCRF-CEM leukemia
[21] = system: OVCAR-3 ovarian
[22] = system: K-562 leukemia
[23] = system: NCI-H23 lung
[24] = system: RPMI-8226 leukemia
[25] = system: OVCAR-4 ovarian
[26] = system: NCI/ADR-RES ovarian
[27] = system: HCC-2998 colon
[28] = system: MALME-3M melanoma
[29] = system: MDA-MB-435
[30] = system: 786-0 renal
[31] = system: SF-295 CNS
[32] = system: A498 renal
[33] = system: NCI-H460 lung
[34] = system: SF-539 CNS
[35] = system: A549 NSCLC
[36] = system: HCT-116 colon
[37] = system: IGROV1 ovarian
[38] = system: KM12 colon
[39] = system: CAKI-1 renal
[40] = system: SNB-19 CNS
[41] = system: NCI-H226 lung
[42] = system: NCI-H522 lung
[43] = system: COLO 205 colon
[44] = system: SNB-75 CNS
[45] = system: SW-620 colon
[46] = system: SF-268 CNS
[47] = system: HL-60(TB) leukemia
[48] = system: PC-3 prostate
[49] = system: T-47D breast
[50] = system: U251 CNS
[51] = system: HCT-15 colon
[52] = system: BT-549 breast
[53] = system: SK-MEL-28 melanoma
[54] = system: SK-MEL-2 melanoma
[55] = system: MOLT-4 leukemia
[56] = system: RXF 393 renal

O=c1[nH]c2ccccc2cc1-c1nc2ccc(Cl)cc2[nH]1
15.7 µM: TGI [32]
inactive: GI50 [1] 4.24 µM | GI50 [2] 2.22 µM | GI50 [3] 4.43 µM | GI50 [4] 2.86 µM | GI50 [5] 3.17 µM | GI50 [6] 51.7 µM | GI50 [7] 2.83 µM | GI50 [8] 1.4 µM | GI50 [9] 2.45 µM | GI50 [10] 2.35 µM | GI50 [11] 3.4 µM | GI50 [12] 2.51 µM | GI50 [13] 1.48 µM | GI50 [14] 13.9 µM | GI50 [15] 3.31 µM | GI50 [16] 6.51 µM | GI50 [17] 3.25 µM | GI50 [18] 7.68 µM | GI50 [19] 6.79 µM | GI50 [20] 3.24 µM | GI50 [21] 2.37 µM | GI50 [22] 3.85 µM | GI50 [23] 4.7 µM | GI50 [24] 1.42 µM | GI50 [25] 5.09 µM | GI50 [26] 6.09 µM | GI50 [27] 11 µM | GI50 [28] > 100 µM | GI50 [29] 4.39 µM | GI50 [30] 7.42 µM | GI50 [31] 9.63 µM | GI50 [32] 2.48 µM | GI50 [33] 2.61 µM | GI50 [34] 4.13 µM | GI50 [35] 5.15 µM | GI50 [36] 2.66 µM | GI50 [37] 1.36 µM | GI50 [39] 1.02 µM | GI50 [40] 29.8 µM | GI50 [41] 2.71 µM | GI50 [42] 6.79 µM | GI50 [43] 3.25 µM | GI50 [44] 2.98 µM | GI50 [45] 4.81 µM | GI50 [46] 6.09 µM | GI50 [47] 3.24 µM | GI50 [48] 3.71 µM | GI50 [49] 3.33 µM | GI50 [50] 3.87 µM | GI50 [51] 2.91 µM | GI50 [52] 2.99 µM | GI50 [53] 6.66 µM
> 100 µM: TGI [1] | TGI [3] | TGI [4] | TGI [5] | TGI [6] | TGI [7] | TGI [8] | TGI [9] | TGI [10] | TGI [12] | TGI [14] | TGI [15] | TGI [16] | TGI [20] | TGI [22] | TGI [23] | TGI [25] | TGI [26] | TGI [27] | TGI [28] | TGI [29] | TGI [30] | TGI [31] | TGI [33] | TGI [35] | TGI [37] | TGI [38] | TGI [39] | TGI [40] | TGI [41] | TGI [42] | TGI [43] | TGI [44] | TGI [45] | TGI [46] | TGI [49] | TGI [50] | TGI [51] | TGI [52]
29.1 µM: TGI [48]
64.2 µM: TGI [18]
85.9 µM: TGI [17]
10.4 µM: TGI [47]
45.7 µM: TGI [53]
8.01 µM: TGI [2]
7.25 µM: TGI [21]
17.2 µM: TGI [34]
21.4 µM: TGI [36]
6.78 µM: TGI [24]
32.5 µM: TGI [11]
9.29 µM: TGI [13]
59.3 µM: TGI [19]
active: GI50 [38] 0.385 µM

[N-]=[N+]=NCCCn1c2c(c3ccc([N+](=O)[O-])cc3c1=O)C(=O)c1ccccc1-2
active: GI50 [14] 0.244 µM | GI50 [47] 0.0101 µM | GI50 [56] 0.0923 µM
43.2 µM: TGI [17]
> 100 µM: TGI [1] | TGI [2] | TGI [3] | TGI [4] | TGI [5] | TGI [6] | TGI [7] | TGI [8] | TGI [9] | TGI [10] | TGI [12] | TGI [13] | TGI [15] | TGI [18] | TGI [19] | TGI [22] | TGI [23] | TGI [24] | TGI [26] | TGI [29] | TGI [30] | TGI [31] | TGI [33] | TGI [35] | TGI [36] | TGI [37] | TGI [38] | TGI [54] | TGI [42] | TGI [55] | TGI [45] | TGI [46] | TGI [47] | TGI [48] | TGI [50] | TGI [51] | TGI [52] | TGI [53]
inactive: GI50 [1] > 100 µM | GI50 [2] > 100 µM | GI50 [3] 8.66 µM | GI50 [4] > 100 µM | GI50 [5] 72.5 µM | GI50 [6] > 100 µM | GI50 [7] 29.6 µM | GI50 [8] 4.19 µM | GI50 [9] 9.14 µM | GI50 [10] > 100 µM | GI50 [11] 2.39 µM | GI50 [12] 99.2 µM | GI50 [13] 45.1 µM | GI50 [15] > 100 µM | GI50 [17] 3.57 µM | GI50 [18] > 100 µM | GI50 [19] > 100 µM | GI50 [22] 1.05 µM | GI50 [23] 9.25 µM | GI50 [24] 6.04 µM | GI50 [26] > 100 µM | GI50 [29] > 100 µM | GI50 [30] > 100 µM | GI50 [31] 4.82 µM | GI50 [33] 8.65 µM | GI50 [35] 14.4 µM | GI50 [36] 8.17 µM | GI50 [37] > 100 µM | GI50 [38] > 100 µM | GI50 [54] > 100 µM | GI50 [39] 5.11 µM | GI50 [42] 70.3 µM | GI50 [45] 5.26 µM | GI50 [46] 79.8 µM | GI50 [48] 38 µM | GI50 [50] 4.28 µM | GI50 [51] 75.5 µM | GI50 [52] 27.4 µM | GI50 [53] > 100 µM
0.061 µM: TGI [16]
78.2 µM: TGI [56]
43.3 µM: TGI [39]
9.31 µM: TGI [11]
56.8 µM: TGI [14]
